From patent US20200061076A1, “METHODS OF TREATING LEUKODYSTROPHIES” (Ramot at Tel-Aviv University Ltd., priority 2017, published 2020)

Legend:
Mut primary astrocytes = experiment: mtDNA quantification, primary astrocytes; format: cell-based, mouse; conditions: 1 or 10 μm, 6 hours (FIG. 17A)
Procedure: Shown is average relative quantity (RQ) of 2-6 independent experiments normalized to their untreated controls ±SEM. […] Values of ATP-linked respiration (FIG. 17B) and maximal respiration (FIG. 17C) were analyzed and normalized to cell number.

Mut astrocytes [1] = experiment: Survival under Tunicamycin-induced ER stress, Crystal Violet, astrocytes; format: cell-based, mouse; conditions: 20-50 μM, 50 ng/ml Tunicamycin last 22 hours (FIG. 19)
Procedure: WT and Mut astrocytes were treated or not for 24 hours with 20, 30 or 50 μM of the indicated Sig-1R binders in the presence of 50 ng/ml Tunicamycin (Tun) during the last 22 hours. Following, the cells were washed, fixated and stained with Crystal Violet (CV) followed by measurement of absorbance at 570 nm. Shown is % of CV staining relative to cells not treated with tunicamycin nor Sig-1R binder ±SEM of 3 independent experiments, *p<0.05.
(§1) Cells were seeded on 96-wells plate at a density of 5000 cells per well. Astrocytes were seeded following coating with 0.001% PDL.

WT astrocytes = experiment: Cell survival assay, Crystal violet staining, WT astrocytes; format: cell-based, mouse; conditions: 24 hours, untreated cells set to 100%
Procedure: as §1

Mut MEFs [2] = experiment: Cell survival assay, Crystal violet staining, Mut MEFs; format: cell-based, mouse; conditions: for Survival (%) ± SEM Mut MEFs: 24 hours, untreated cells set to 100%
Procedure: as §1

Mut astrocytes [3] = experiment: Cell survival assay, Crystal violet staining, Mut astrocytes; format: cell-based, mouse; conditions: 24 hours, untreated cells set to 100%
Procedure: as §1

Mut MEFs [4] = experiment: Survival under Tunicamycin-induced ER stress, Crystal Violet, MEFs; conditions: 20 μM, 24 hours, Tunicamycin during the last 22 hours (FIGS. 9, 10 and 18)
Mut MEFs [5] = experiment: TMRE staining, flow cytometry; format: cell-based, mouse; conditions: 1 μM, 6 hours (FIGS. 5A-B)
Procedure: Mut MEFs were treated or untreated with the indicated concentrations of the indicated Sig-1R binders for 6 hours, stained by TMRE for 30 minutes and analyzed by flow cytometry. Shown are flow cytometry histograms and bar graphs representing % mean TMRE fluorescence intensity relative to non-treated WT cells of a representative experiment.
MEFs were seeded at a density of 4×10^4 cells per well in a 24-wells plate. 24 hours post-plating the cells were incubated with the tested compounds for additional 6 hours followed by staining with 200 nM Tetra-Methyl-Rhodamine-Ethyl esterperchlorate (TMRE) (Abcam) for 30 minutes at 37° C. Cells were removed by trypsinyzation, washed and resuspended in PBS. 5-10×10^3 cells were analyzed by Stratedigm S1000EXi cell sorter and FlowJo software (FLOWJO, LLC, Ashland, Oreg., USA).

Sig-1R = Sig-1R (Homo sapiens, UniProt Q99720); experiment: Competitive displacement binding assay with [3H]haloperidol (Eurofins); conditions: 10 μM compound
Procedure: Following, the direct binding of p8G5 to Sig-1R, was tested in-vitro by Eurofins labs (www(dot)cerep(dot)fr/cerep/users/pages/catalog/Affiche_CondExp_Test(dot)asp?test=889).

[6] = system: Mut MEFs (primary fibroblasts from Eif2b5 R132H/R132H mice); experiment: Image-based single cell analysis of ROS level (cellROX); design: species or system mouse; conditions: 10 μM, 24 hours incubation, compared with WT level (FIG. 3)
Procedure: Mut MEFs were treated with the indicated compounds at 10 μM for 24 hours followed by staining with fluorogenic dyes and image-based single-cell analysis. Shown is average effect on ROS level from at least 3-independent experiments ±SEM. All values are statistically significant, p<0.02. The extreme SEM points of all values are below the 90% cut-off, therefore the actual average reduction is between 12% and 29%. […] Mut MEFs were incubated or not for 24 hours with 10 μM of the indicated compound, washed and stained with Crystal Violet. Shown is average absorbance at 570 nm normalized (%) to non-treated cells of 3 independent experiments ±SEM, * p=0.0003. […] Mut MEFs were incubated or not for 24 hours with 10 μM of the indicated compound, washed and stained with JC1 and Hoechst followed by image-based single-cell analysis. […]
To assay the compounds, cellROX, a reactive oxygen species (ROS) fluorescent detector and a preferred in-situ mitochondrial content detector, was used for single cell-based imaging analysis as detailed previously (Raini et al., 2017). […] Compounds toxicity was evaluated by testing cell survival following 24 hours incubation with 10 μM of each compound using crystal violet staining (FIG. 14B). […] The other 19 compounds were not toxic; therefore, maximal working concentrations tolerated by the cells were further evaluated (Table 3 hereinbelow).

Sequence of Sig-1R (Q99720 whole entry): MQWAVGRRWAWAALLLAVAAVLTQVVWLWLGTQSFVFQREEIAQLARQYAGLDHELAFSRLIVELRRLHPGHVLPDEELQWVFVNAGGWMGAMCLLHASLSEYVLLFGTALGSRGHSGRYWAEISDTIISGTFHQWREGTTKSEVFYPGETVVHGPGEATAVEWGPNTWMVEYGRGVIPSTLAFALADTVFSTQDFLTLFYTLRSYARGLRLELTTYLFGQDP

Cc1cccc(OCCCCCN2CCOCC2)c1 [H8 (p8G5), 4-[5-(3-methylphenoxy)pentyl]morpholine]
mitochondrial content per cell in astrocytes (Mut primary astrocytes): no effect on mitochondrial content per cell | survival rate of Mut astrocytes under ER-stress conditions (Mut astrocytes [1]): increased the survival rate | Survival (%) ± SEM WT astrocytes (WT astrocytes; 1 μM): 132 ± 10.7% | Survival (%) ± SEM WT astrocytes (WT astrocytes; 10 μM): 102 ± 3.8% | Survival (%) ± SEM WT astrocytes (WT astrocytes; 30 μM): 99 ± 3.2% | Survival (%) ± SEM Mut MEFs (Mut MEFs [2]; 0.1 μM): 104 ± 4.6% | Survival (%) ± SEM Mut MEFs (Mut MEFs [2]; 1 μM): 102 ± 3.3% | Survival (%) ± SEM Mut MEFs (Mut MEFs [2]; 10 μM): 99 ± 2.6% | Survival (%) ± SEM Mut MEFs (Mut MEFs [2]; 30 μM): 105 ± 13% | effect on survival of Mut cells (Mut MEFs [2]; as high as 30 μM (FIG. 4, Table 3)): did not have any negative effect on the survival | Survival (%) ± SEM Mut astrocytes (Mut astrocytes [3]; 1 μM): 108 ± 0.6% | Survival (%) ± SEM Mut astrocytes (Mut astrocytes [3]; 10 μM): 93 ± 2.1% | Survival (%) ± SEM Mut astrocytes (Mut astrocytes [3]; 30 μM): 92 ± 1.6% | survival of Mut MEFs under Tunicamycin ER-stress (Mut MEFs [4]): attenuated the apoptotic effect | TMRE staining (mitochondrial membrane potential) (Mut MEFs [5]): increased TMRE staining to a level above that of untreated WT cells | inhibition at 10 µM (Sig-1R): 92% | level of ROS (CellROX) in Mut cells [6]: corrected the abnormal level of ROS
